# According to US20080269170A1, “Novel 2,4-Dianilinopyrimidine Derivatives, the Preparation Thereof, Their Use as Medicaments, Pharmaceutical Compositions and, in Particular, as IKK Inhibitors” (sanofi-aventis, priority 2005, published 2008):
# Structures can show the parent of a compound that is named as a salt.
row,SMILES,melting point [°C]
1,"CN1CCC(N(C)S(=O)(=O)c2ccc(Nc3nccc(Nc4ccc(F)cc4)n3)cc2)CC1 [Example 1, 4-[4-(4-Fluorophenylamino)pyrimidin-2-ylamino]-N-methyl-N-(1-methylpiperidin-4-yl)benzenesulfonamide]",205 to 210
2,"O=C(CNS(=O)(=O)c1ccc(Nc2nccc(Nc3ccc(F)cc3)n2)cc1)NC1CCOCC1 [Example 2, 2-{4-[4-(4-Fluorophenylamino)pyrimidin-2-ylamino]benzenesulfonylamino}-N-(tetrahydropyran-4-yl)-acetamide]",253 to 254
3,"CN(C1CCN(Cc2ccccc2)CC1)S(=O)(=O)c1ccc(Nc2nccc(Nc3ccc(F)cc3)n2)cc1 [Example 3, N-(1-Benzylpiperidin-4-yl)-4-[4-(4-fluoro-phenylamino)pyrimidin-2-ylamino]-N-methylbenzene-sulfonamide]",186 to 190
4,"CN1CCC(N(C)S(=O)(=O)c2ccc(Nc3nccc(Nc4ccc(F)cc4)n3)cc2)C1 (stereo not shown) [Example 5, 4-[4-(4-Fluorophenylamino)pyrimidin-2-yl-amino]-N-methyl-N-(1-methylpyrrolidin-3-yl)benzene-sulfonamide]",177 to 181
5,"CN(C1CCS(=O)(=O)C1)S(=O)(=O)c1ccc(Nc2nccc(Nc3ccc(F)cc3)n2)cc1 (stereo not shown) [Example 6, N-(1,1-Dioxotetrahydro-1λ^6-thiophen-3-yl)-4-[4-(4-fluorophenylamino)pyrimidin-2-ylamino]-N-methyl-benzenesulfonamide]",236 to 240
6,"CN(C1CCN(Cc2ccccn2)CC1)S(=O)(=O)c1ccc(Nc2nccc(Nc3ccc(F)cc3)n2)cc1 [Example 9, 4-[4-(4-Fluorophenylamino)pyrimidin-2-ylamino]-N-methyl-N-(1-pyridin-2-ylmethylpiperidin-4-yl)benzenesulfonamide]",202 to 204
7,"CCN1CCC(N(C)S(=O)(=O)c2ccc(Nc3nccc(Nc4ccc(F)cc4)n3)cc2)CC1 [Example 10, N-(1-Ethylpiperidin-4-yl)-4-[4-(4-fluoro-phenylamino)pyrimidin-2-ylamino]-N-methylbenzene-sulfonamide]",162 to 163
8,"CN1CCC(N(C)S(=O)(=O)c2ccc(Nc3nccc(Nc4ccc(F)c(F)c4)n3)cc2)CC1 [Example 11, 4-[4-(3,4-Difluorophenylamino)pyrimidin-2-ylamino]-N-methyl-N-(1-methylpiperidin-4-yl)benzene-sulfonamide]",181 to 183
9,"CN1CCC(N(C)S(=O)(=O)c2ccc(Nc3nccc(Nc4ccc(F)c(Cl)c4)n3)cc2)CC1 [Example 12, 4-[4-(3-Chloro-4-fluorophenylamino)pyrimidin-2-ylamino]-N-methyl-N-(1-methylpiperidin-4-yl)benzenesulfonamide]",183 to 186
10,"CN(C1CCN(Cc2cccs2)CC1)S(=O)(=O)c1ccc(Nc2nccc(Nc3ccc(F)cc3)n2)cc1 [Example 13, 4-[4-(4-Fluorophenylamino)pyrimidin-2-ylamino]-N-methyl-N-(1-thiophen-2-ylmethylpiperidin-4-yl)benzenesulfonamide]",175 to 176
11,"CN1CCC(N(C2CC2)S(=O)(=O)c2ccc(Nc3nccc(Nc4ccc(F)cc4)n3)cc2)CC1 [Example 14, N-Cyclopropyl-4-[4-(4-fluorophenylamino)-pyrimidin-2-ylamino]-N-(1-methylpiperidin-4-yl)benzene-sulfonamide]",218
12,"CCN(C1CCN(Cc2ccccc2)C1)S(=O)(=O)c1ccc(Nc2nccc(Nc3ccc(F)cc3)n2)cc1 (stereo not shown) [Example 15, N-(1-Benzylpyrrolidin-3-yl)-4-[4-(4-fluoro-phenylamino)pyrimidin-2-ylamino]-N-ethylbenzene-sulfonamide]",125 to 127
13,"CN(C1CCN(Cc2ccsc2)CC1)S(=O)(=O)c1ccc(Nc2nccc(Nc3ccc(F)cc3)n2)cc1 [Example 16, 4-[4-(4-Fluorophenylamino)pyrimidin-2-ylamino]-N-methyl-N-(1-thiophen-3-ylmethylpiperidin-4-yl)benzenesulfonamide]",173 to 174
14,"CN(C)CCN(C1CCN(C)CC1)S(=O)(=O)c1ccc(Nc2nccc(Nc3ccc(F)cc3)n2)cc1 [Example 18, N-(2-Dimethylaminoethyl)-4-[4-(4-fluoro-phenylamino)pyrimidin-2-ylamino]-N-(1-methylpiperidin-4-yl)benzenesulfonamide]",135 to 137
15,"CN1CCC(N(CCO)S(=O)(=O)c2ccc(Nc3nccc(Nc4ccc(F)cc4)n3)cc2)CC1 [Example 19, 4-[4-(4-Fluorophenylamino)pyrimidin-2-ylamino]-N-(2-hydroxyethyl)-N-(1-methylpiperidin-4-yl)-benzenesulfonamide]",125 to 135
16,"CN1CCC(N(C)S(=O)(=O)c2ccc(Nc3nc(Cl)cc(Nc4ccc(F)cc4)n3)cc2)CC1 [Example 20, 4-[4-Chloro-6-(4-fluorophenylamino)pyrimidin-2-ylamino]-N-methyl-N-(1-methylpiperidin-4-yl)benzenesulfonamide]",140 to 142
17,"CN1CCC(N(C)C(=O)CNS(=O)(=O)c2ccc(Nc3nccc(Nc4ccc(F)cc4)n3)cc2)CC1 [Example 25, 2-{4-[4-(4-Fluorophenylamino)pyrimidin-2-ylamino]benzenesulfonylamino}-N-methyl-N-(1-methyl-piperidin-4-yl)acetamide]",233 to 234.4

# Other lines, results leading:
row,melting point [°C],SMILES
1,270,"NCCN(C1CCNCC1)S(=O)(=O)c1ccc(Nc2nccc(Nc3ccc(F)cc3)n2)cc1 (as salt: hydrochloride) [Example 44, N-(2-Aminoethyl)-4-[4-(4-fluorophenyl-amino)pyrimidin-2-ylamino]-N-piperidin-4-ylbenzene-sulfonamide hydrochloride]"
2,220,"CNCCN(C1CCN(C)CC1)S(=O)(=O)c1ccc(Nc2nccc(Nc3ccc(F)cc3)n2)cc1 (as salt: hydrochloride) [Example 46, 4-[4-(4-Fluorophenylamino)pyrimidin-2-yl-amino]-N-(2-methylaminoethyl)-N-(1-methylpiperidin-4-yl)benzenesulfonamide hydrochloride]"
3,245 to 247,"NCCCN(C1CCNCC1)S(=O)(=O)c1ccc(Nc2nccc(Nc3ccc(F)cc3)n2)cc1 (as salt: hydrochloride) [Example 92, N-(3-Aminopropyl)-4-({4-[(4-fluorophenyl)-amino]pyrimidin-2-yl}amino)-N-piperidin-4-ylbenzene-sulfonamide hydrochloride]"
4,220,"Cc1cc(Nc2ccnc(Nc3ccc(S(=O)(=O)N(CCN)C4CCN(C)CC4)cc3)n2)ccc1F (as salt: hydrochloride) [Example 95, N-(2-Aminoethyl)-4-({4-[(4-fluoro-3-methyl-phenyl)amino]pyrimidin-2-yl}amino)-N-(1-methylpiperidin-4-yl)benzenesulfonamide hydrochloride]"
5,215,"O=S(=O)(c1ccc(Nc2nccc(Nc3ccc(F)cc3)n2)cc1)N(CCN1CCCC1)C1CNC1 (as salt: hydrochloride) [Example 96, N-Azetidin-3-yl-4-({4-[(4-fluorophenyl)-amino]pyrimidin-2-yl}amino)-N-(2-pyrrolidin-1-ylethyl)-benzenesulfonamide hydrochloride]"
6,231 to 235,"Cc1cc(Nc2ccnc(Nc3ccc(S(=O)(=O)N(CCN4CCCC4)C4CNC4)cc3)n2)ccc1F (as salt: hydrochloride) [Example 97, N-Azetidin-3-yl-4-({4-[(4-fluoro-3-methyl-phenyl)amino]pyrimidin-2-yl}amino)-N-(2-pyrrolidin-1-ylethyl)benzenesulfonamide hydrochloride]"
7,240 to 245,"NCCN(C1CCN(CC(F)(F)F)CC1)S(=O)(=O)c1ccc(Nc2nccc(Nc3ccc(F)cc3)n2)cc1 (as salt: hydrochloride) [Example 100, N-(2-Aminoethyl)-4-({4-[(4-fluorophenyl)-amino]pyrimidin-2-yl}amino)-N-[1-(2,2,2-trifluoro-ethyl)piperidin-4-yl]benzenesulfonamide hydrochloride]"
8,200,"CN1CCC(N(C[C@@H]2CCCN2)S(=O)(=O)c2ccc(Nc3nccc(Nc4ccc(F)cc4)n3)cc2)CC1 (as salt: hydrochloride) [Example 123, 4-({4-[(4-Fluorophenyl)amino]pyrimidin-2-yl}amino)-N-(1-methylpiperidin-4-yl)-N-[(2S)-pyrrolidin-2-ylmethyl]benzenesulfonamide]"
9,200,"CN1CCC(N(C[C@H]2CCCN2)S(=O)(=O)c2ccc(Nc3nccc(Nc4ccc(F)cc4)n3)cc2)CC1 (as salt: hydrochloride) [Example 124, 4-({4-[(4-Fluorophenyl)amino]pyrimidin-2-yl}amino)-N-(1-methylpiperidin-4-yl)-N-[(2R)-pyrrolidin-2-ylmethyl]benzenesulfonamide]"
10,189,CN1CCC(N(CC2CCCO2)S(=O)(=O)c2ccc(Nc3nccc(Nc4ccc(F)cc4)n3)cc2)CC1 (racemic) [Example 154]
11,155 to 156,"CN(C1CCN(Cc2cc[n+]([O-])cc2)CC1)S(=O)(=O)c1ccc(Nc2nccc(Nc3ccc(F)cc3)n2)cc1 [Example 29, 4-[4-(4-Fluorophenylamino)pyrimidin-2-ylamino]-N-[1-(1-N-oxidepyridin-4-ylmethyl)piperidin-4-yl]-N-methylbenzenesulfonamide]"
12,155,"Cc1ncc(CN2CCC(N(C)S(=O)(=O)c3ccc(Nc4nccc(Nc5ccc(F)cc5)n4)cc3)CC2)[nH]1 [Example 30, 4-[4-(4-Fluorophenylamino)pyrimidin-2-ylamino]-N-methyl-N-[1-(2-methyl-3H-imidazol-4-ylmethyl)piperidin-4-yl]benzenesulfonamide]"
13,182 to 183,"CN(C1CCN(Cc2ccccc2F)CC1)S(=O)(=O)c1ccc(Nc2nccc(Nc3ccc(F)cc3)n2)cc1 [Example 31, N-[1-(2-Fluorobenzyl)piperidin-4-yl]-4-[4-(4-fluorophenylamino)pyrimidin-2-ylamino]-N-methyl-benzenesulfonamide]"
14,207,"CN(C1CCN(Cc2cccc(F)c2)CC1)S(=O)(=O)c1ccc(Nc2nccc(Nc3ccc(F)cc3)n2)cc1 [Example 32, N-[1-(3-Fluorobenzyl)piperidin-4-yl]-4-[4-(4-fluorophenylamino)pyrimidin-2-ylamino]-N-methyl-benzenesulfonamide]"
